# From ChEMBL document CHEMBL1681651, “A broad spectrum anticancer nucleoside with selective toxicity against human colon cells in vitro” (2011)
# How the values were obtained:
# Assay type in all cases: functional
# EKVX [1] = test: Growth inhibition of human EKVX cells assessed as cell growth at 10 uM after 48 hrs by SRB assay; conditions: read-out: Activity
# NCI-H460 [2] = test: Growth inhibition of human NCI-H460 cells assessed as cell growth at 10 uM after 48 hrs by SRB assay; conditions: NCI-H460, 48 h, read-out: Activity
# COLO 205 = test: Growth inhibition of human COLO205 cells assessed as cell growth at 10 uM after 48 hrs by SRB assay; conditions: COLO 205, 48 h, read-out: Activity
# SF-539 = test: Growth inhibition of human SF539 cells assessed as cell growth at 10 uM after 48 hrs by SRB assay; conditions: SF-539, 48 h, read-out: Activity
# HCC 2998 [3] = test: Growth inhibition of human HCC2998 cells after 48 hrs by […] growth inhibition assay; conditions: HCC 2998, 48 h
# HCT-15 = test: Growth inhibition of human HCT15 cells after 48 hrs by […] growth inhibition assay; conditions: HCT-15, 48 h
# 786-0 = test: Growth inhibition of human 786-0 cells after 48 hrs by […] growth inhibition assay; conditions: 786-0, 48 h
# UO-31 [4] = test: Growth inhibition of human UO31 cells after 48 hrs by […] growth inhibition assay; conditions: UO-31, 48 h
# T47D = test: Growth inhibition of human T47D cells after 48 hrs by […] growth inhibition assay
# A549 [5] = test: Growth inhibition of human A549 cells assessed as cell growth at 0.1 uM after 48 hrs by SRB assay; conditions: A549, 48 h, read-out: Activity
# HOP-62 = test: Growth inhibition of human HOP62 cells assessed as cell growth at 0.1 uM after 48 hrs by SRB assay; conditions: HOP-62, 48 h, read-out: Activity
# NCI-H322M = test: Growth inhibition of human NCI-H322M cells assessed as cell growth at 0.1 uM after 48 hrs by SRB assay; conditions: read-out: Activity
# HCC 2998 [6] = test: Growth inhibition of human HCC2998 cells assessed as cell growth at 0.1 uM after 48 hrs by SRB assay; conditions: HCC 2998, 48 h, read-out: Activity
# IGROV-1 [7] = test: Growth inhibition of human IGROV1 cells assessed as cell growth at 0.1 uM after 48 hrs by SRB assay; conditions: IGROV-1, 48 h, read-out: Activity
# MCF7 [8] = test: Growth inhibition of human MCF7 cells assessed as cell growth at 0.1 uM after 48 hrs by SRB assay; conditions: MCF7, 48 h, read-out: Activity
# MDA-MB-231 [9] = test: Growth inhibition of human MDA-MB-231 cells assessed as cell growth at 0.1 uM after 48 hrs by SRB assay; conditions: MDA-MB-231, 48 h, read-out: Activity
# IGROV-1 [10] = test: Growth inhibition of human IGROV1 cells assessed as cell growth at 10 uM after 48 hrs by SRB assay; conditions: IGROV-1, 48 h, read-out: Activity
# OVCAR-4 [11] = test: Growth inhibition of human OVCAR4 cells assessed as cell growth at 10 uM after 48 hrs by SRB assay; conditions: OVCAR-4, 48 h, read-out: Activity
# ACHN = test: Growth inhibition of human ACHN cells assessed as cell growth at 10 uM after 48 hrs by SRB assay; conditions: read-out: Activity
# CAKI-1 = test: Growth inhibition of human Caki1 cells assessed as cell growth at 10 uM after 48 hrs by SRB assay; conditions: CAKI-1, 48 h, read-out: Activity
# UO-31 [12] = test: Growth inhibition of human UO31 cells assessed as cell growth at 10 uM after 48 hrs by SRB assay; conditions: UO-31, 48 h, read-out: Activity
# DU-145 [13] = test: Growth inhibition of human DU145 cells assessed as cell growth at 10 uM after 48 hrs by SRB assay; conditions: DU-145, 48 h, read-out: Activity
# MCF7 [14] = test: Growth inhibition of human MCF7 cells assessed as cell growth at 10 uM after 48 hrs by SRB assay; conditions: MCF7, 48 h, read-out: Activity
# MDA-MB-231 [15] = test: Growth inhibition of human MDA-MB-231 cells assessed as cell growth at 10 uM after 48 hrs by SRB assay; conditions: MDA-MB-231, 48 h, read-out: Activity
# CCRF-CEM = test: Growth inhibition of human CCRF-CEM cells assessed as cell growth at 100 uM after 48 hrs by SRB assay; conditions: read-out: Activity
# OVCAR-3 = test: Growth inhibition of human OVCAR3 cells assessed as cell growth at 100 uM after 48 hrs by SRB assay; conditions: OVCAR-3, 48 h, read-out: Activity
# A498 = test: Growth inhibition of human A498 cells assessed as cell growth at 100 uM after 48 hrs by SRB assay; conditions: A498, 48 h, read-out: Activity
# DU-145 [16] = test: Growth inhibition of human DU145 cells assessed as cell growth at 100 uM after 48 hrs by SRB assay; conditions: DU-145, 48 h, read-out: Activity
# MCF7 [17] = test: Growth inhibition of human MCF7 cells assessed as cell growth at 100 uM after 48 hrs by SRB assay; conditions: MCF7, 48 h, read-out: Activity
# A549 [18] = test: Growth inhibition of human A549 cells assessed as cell growth at 1 mM after 48 hrs by SRB assay; conditions: A549, 48 h, read-out: Activity
# EKVX [19] = test: Growth inhibition of human EKVX cells assessed as cell growth at 1 mM after 48 hrs by SRB assay; conditions: read-out: Activity
# SK-OV-3 = test: Growth inhibition of human SKOV3 cells assessed as cell growth at 1 mM after 48 hrs by SRB assay; conditions: SK-OV-3, 48 h, read-out: Activity
# MDA-MB-231 [20] = test: Growth inhibition of human MDA-MB-231 cells assessed as cell growth at 1 mM after 48 hrs by SRB assay; conditions: MDA-MB-231, 48 h, read-out: Activity
# NCI-H460 [21] = test: Growth inhibition of human NCI-H460 cells assessed as cell growth at 1 uM after 48 hrs by SRB assay; conditions: NCI-H460, 48 h, read-out: Activity
# NCI-H522 = test: Growth inhibition of human NCI-H522 cells assessed as cell growth at 1 uM after 48 hrs by SRB assay; conditions: NCI-H522, 48 h, read-out: Activity
# OVCAR-4 [22] = test: Growth inhibition of human OVCAR4 cells assessed as cell growth at 1 uM after 48 hrs by SRB assay; conditions: OVCAR-4, 48 h, read-out: Activity
# [23] = read-out: LC50 (the source's name)
# [24] = read-out: pLC50 (the source's name) (converted)
smiles,measurement,setting,value
CNC(=O)NC[C@H]1O[C@@H](n2cnc3c(NC(=O)Nc4ccccc4)ncnc32)[C@H](O[Si](C)(C)C(C)(C)C)[C@@H]1O[Si](C)(C)C(C)(C)C,growth at 10 µM,EKVX [1],104%
same,growth at 10 µM,NCI-H460 [2],88%
same,growth at 10 µM,COLO 205,105%
same,growth at 10 µM,SF-539,91%
same,GI50,HCC 2998 [3]; read-out: GI50,2.02 µM
same,CC50,HCC 2998 [3]; [23],6.99 µM
same,TGI,HCC 2998 [3]; read-out: TGI,3.75 µM
same,GI50,HCC 2998 [3]; read-out: pGI50 (converted),2 µM
same,CC50,HCC 2998 [3]; [24],6.92 µM
same,TGI,HCC 2998 [3]; read-out: pTGI (converted),3.72 µM
same,GI50,HCT-15; read-out: GI50,3.62 µM
same,CC50,HCT-15; [23],> 100 µM
same,TGI,HCT-15; read-out: TGI,> 100 µM
same,GI50,HCT-15; read-out: pGI50 (converted),3.63 µM
same,CC50,HCT-15; [24],> 100 µM
same,TGI,HCT-15; read-out: pTGI,> 100 µM
same,GI50,786-0; read-out: GI50,2.04 µM
same,CC50,786-0; [23],6.75 µM
same,TGI,786-0; read-out: TGI,3.71 µM
same,GI50,786-0; read-out: pGI50 (converted),2.04 µM
same,CC50,786-0; [24],6.76 µM
same,TGI,786-0; read-out: pTGI (converted),3.72 µM
same,GI50,UO-31 [4]; read-out: GI50,2.5 µM
same,CC50,UO-31 [4]; [23],> 100 µM
same,TGI,UO-31 [4]; read-out: TGI,9.56 µM
same,GI50,UO-31 [4]; read-out: pGI50 (converted),2.51 µM
same,CC50,UO-31 [4]; [24],> 100 µM
same,TGI,UO-31 [4]; read-out: pTGI (converted),9.55 µM
same,GI50,T47D; read-out: GI50,2.87 µM
same,CC50,T47D; [23],> 100 µM
same,TGI,T47D; read-out: TGI,10.3 µM
same,GI50,T47D; read-out: pGI50 (converted),2.88 µM
same,CC50,T47D; [24],> 100 µM
same,TGI,T47D; read-out: pTGI (converted),10.2 µM
same,growth at 0.1 µM,A549 [5],99%
same,growth at 0.1 µM,HOP-62,102%
same,growth at 0.1 µM,NCI-H322M,102%
same,growth at 0.1 µM,HCC 2998 [6],100%
same,growth at 0.1 µM,IGROV-1 [7],100%
same,growth at 0.1 µM,MCF7 [8],99%
same,growth at 0.1 µM,MDA-MB-231 [9],105%
same,growth at 10 µM,IGROV-1 [10],98%
same,growth at 10 µM,OVCAR-4 [11],100%
same,growth at 10 µM,ACHN,105%
same,growth at 10 µM,CAKI-1,96%
same,growth at 10 µM,UO-31 [12],84%
same,growth at 10 µM,DU-145 [13],109%
same,growth at 10 µM,MCF7 [14],83%
same,growth at 10 µM,MDA-MB-231 [15],106%
same,growth at 100 µM,CCRF-CEM,9%
same,growth at 100 µM,OVCAR-3,-39%
same,growth at 100 µM,A498,-39%
same,growth at 100 µM,DU-145 [16],-35%
same,growth at 100 µM,MCF7 [17],6%
same,growth at 1000 µM,A549 [18],-30%
same,growth at 1000 µM,EKVX [19],-9%
same,growth at 1000 µM,SK-OV-3,8%
same,growth at 1000 µM,MDA-MB-231 [20],-76%
same,growth at 1 µM,NCI-H460 [21],93%
same,growth at 1 µM,NCI-H522,90%
same,growth at 1 µM,OVCAR-4 [22],108%
